Data reported in US8476317B2, “N-alkylcarbonyl-amino acid ester compounds and their use for cough and pharyngitis” (priority 2011, dated 2013).

Legend:
Format in all cases: in vivo, human
philtrum skin = test: Cooling on facial (philtrum) skin, ointment; conditions: for Philtrum Skin (min), duration of cooling: 5 mg/ml in Aquaphor ointment; for skin or eye irritancy: in vivo
Excerpt: A reliable place for topical application is the skin above the upper lip (above the vermilion border of the lips), on the philtrum, lateral to the philtrum until the nasolabial folds, and on the lower nostrils (subnasale). This part of the face is known to be densely innervated with cold receptors, second only to the surfaces of the eyeball and anogenitalia. At this locus, tingling, cool and cold sensations in the skin may be experienced and rated for time of onset and intensity.
The intervals for recording sensations are 5 to 10 minutes, until two successive zeroes are obtained. The results (shown in FIG. 1) are averaged values of 4 to 6 separate trials in the same individual. The data are plotted using SigmaPlot® (Systat Software, Point Richmond Calif.) and a smoothing function with a negative exponential was used for analysis and statistical fit of the results. Confirmatory trials of cooling action of the long-acting NACE compounds were obtained in 2 to 4 individuals but not quantified for some because of the large number of chemicals that were evaluated.
(§1) The onset of drug action is taken as the time to reach 2 units of coolness intensity, and offset of drug action is the time when coolness intensity drops below 2, after previously surpassing 2 units. The duration of cooling action is defined as the offset time minus the onset time. […] The quality of the sensation is noted, for example, as pure refreshing coolness, or if the sensation is accompanied by irritation (stinging or burning). The quality of the sensation is not rated for intensity.
For bioassay on the skin, approximately 30 mg was stirred and dissolved in 3 g of warm liquid Aquaphor® ointment to a yield a 40 mM (˜1% wt/vol) ointment. The exact amount was adjusted so that the molar equivalent was about 35 to 40 mM. After cooling, 40 to 70 mg of the solid ointment was placed on the tip of a plastic stick and applied to the skin above the upper lip, on the philtrum, and lateral to the philtrum, up to the nasolabial folds, of test subjects and the onset and duration of cooling sensations noted.
The intervals for recording sensations were 5 to 10 minutes, until two successive zeroes were obtained. The results (shown in FIG. 1) are averaged values of 4 to 6 separate trials in the same individual. The data are plotted using SigmaPlot® (Systat Software, Point Richmond, Calif., USA) and a smoothing function with a negative exponential was used for analysis and statistical fit of the results.
as §1, with “was” for “is”, “was also noted: such” for “is noted, for example,”
In the results of FIG. 1, the test compounds were singly applied to the skin above the upper lips as a ˜1% wt/vol (10 mg/ml) ointment. Subsequently, for the results shown in Table 3, the test dose on the philtrum was reduced to a 0.5% wt/vol (5 mg/ml) ointment. The reason for choosing a lower dose was to increase the number of trials per individual and to have a reduced chance of substances accumulating in the skin.

ocular surface = test: Eye wipe test, duration of cooling on ocular surface; conditions: eye wipes 1 mg/ml in 5%-95% v/v ethanol-distilled water
Description: To further document the activities fo the test molecules, the results from an eye wipe test was included. Here the test substance is applied to the closed eyelids with a towelette at a concentration of 1 mg/ml in 5%-ethanol-95%-distilled water vol/vol and the duration of cooling on the ocular surface was recorded. […] It is likely that the mucous membranes that line the ocular surface and the pharynx have similar sensory mechanisms that are somewhat different from the philtrum skin which is keratinized.

pharyngeal surface = test: Chili-pepper sauce cough challenge test; set-up: key: If there is no attenuation of the challenge stimuli, the score is 0; if there is partial inhibition, the score is +; if there is complete attenuation of the cough signal, the score is ++; conditions: challenge 45 to 50 min after ODT containing 2 mg of test substance
Excerpt: A number of cough challenge methods have been devised for evoking the cough reflex (Morice et al. Briti. J. Clin. Pharmacol. 52: 365-375, 2001). Usually, citric acid or capsaicin is delivered via the inhalation route to volunteers and the number of coughs counted. […] The chili pepper sauce used here is called Yank Sing® Chili Pepper Sauce (YS Gourmet Productions, Inc., PO Box 26189, San Francisco, Calif. 94126) and is a well-known condiment for use with dim sum (Chinese tea lunch). The sensations associated with the chili pepper sauce are located in the back of the mouth and are clearly recognized and associated with a desire to clear the throat. […] To test for anti-cough activity the ODT with the test substance is first administered onto the dorsal surface of the tongue and 45 to 50 min afterwards the chili-pepper sauce test is administered. If there is no attenuation of the challenge stimuli, the score is 0, if there is partial inhibition, the score is +, and if there is complete attenuation of the cough signal, the score is ++. In the presence of an ODT that results in a ++ score, the irritative signals are completely absent, yet the salty taste used in the soy sauce of the condiment can still be easily tasted. The test substances in the ODT that produced a ++ score were then identified and further tested for effectiveness in the treatment of cough.

With CCOC(=O)C(C)NC(=O)[C@@H]1C[C@H](C)CC[C@H]1C(C)C (stereo partly drawn) [L-Ala-OEt] the “Philtrum Skin (min), duration of cooling” value (philtrum skin) was 34 min, the “Eyelids/Ocular Surface (min), duration of cooling” value (“Eyelids/Ocular Surface (min)” for short) (ocular surface) was 0 min and the “Chili-Pepper Sauce Test” value (pharyngeal surface) was 0.
COC(=O)[C@@H](C)NC(=O)[C@@H]1C[C@H](C)CC[C@H]1C(C)C [D-Ala-OMe, (R)-2-[((1R,2S,5R)-2-isopropyl-5-methyl-cyclohexanecarbonyl)-amino]-propionic acid methyl ester] was tested, and the “Philtrum Skin (min), duration of cooling” value (philtrum skin) was 77 min, the “skin or eye irritancy” value (philtrum skin) was “without skin or eye irritancy” and the “Eyelids/Ocular Surface (min)” value (ocular surface) was 120 min. For the same molecule, the “Chili-Pepper Sauce Test” value (pharyngeal surface) was “++”.
For CCOC(=O)[C@@H](C)NC(=O)[C@@H]1C[C@H](C)CC[C@H]1C(C)C [D-Ala-OEt, (R)-2-[((1R,2S,5R)-2-isopropyl-5-methyl-cyclohexanecarbonyl)-amino]-propionic acid ethyl ester], the “skin or eye irritancy” value (philtrum skin) was “without skin or eye irritancy”, the “Eyelids/Ocular Surface (min)” value (ocular surface) was 180 min and the “Chili-Pepper Sauce Test” value (pharyngeal surface) was “++”.
